The text below walks through data of patent US20230285577A1, “POLYSACCHARIDE DERIVATIVE, POLYSACCHARIDE DERIVATIVE-DRUG CONJUGATE, AND METHOD FOR PRODUCING SAME” (priority 2020, published 2023).

Data set [1] concerns AB22 cells (mouse mesothelioma cells). Put plainly: Cell toxicity evaluation (WST assay) of HA-ABA-PMX in AB22. Type of data set: cell-based. Conditions: 48 hours; for Cell growth inhibition effect (cell viability): PMX 10^−4 to 10 μg/mL. As for the experimental part:
(§1) As with the HA-ABA, the cell toxicity of HA-ABA-PMX in MeT-5A (human mesothelial cell line) and AB22 cells (mouse mesothelioma cells) was evaluated by WST assay.
(§2) Specifically, MeT-5A (human mesothelial cell line) and AB22 cells (mouse mesothelioma cells) were seeded on 24-well plates and incubated for 24 hours. The medium was then replaced with medium having HA-ABA-PMX dissolved at different PMX concentrations (10^−4 μg/mL, 10^−3 μg/mL, 10^−2 μg/mL, 10^−1 μg/mL, 1 μh/mL, 10 μg/mL). Cell viability (%) 48 hours after sample addition was then measured by WST-8 assay (Cell Counting Kit-8, Dojindo).

Data set [2] concerns MeT-5A (human mesothelial cell line). Put plainly: Cell toxicity evaluation (WST assay) of HA-ABA-PMX in MeT-5A. Conditions: 48 hours; for Cell growth inhibition effect (cell viability): PMX 10^−4 to 10 μg/mL. Format: cell-based. As for the experimental part: as §1, §2
A short description of data set [3]: Release test of PMX from HA-ABA-PMX (dialysis tube, PBS). Format: physicochemical. As for the experimental part:
The release behavior or PMX from HA-ABA-PMX at different pH values was investigated using a dialysis tube (MWCO: 1 kDa). […] The external solution (sustained release solution) was collected at specific time points, and new PBS was substituted for the entire amount. The drug concentration in the collected external solution (sustained release solution) was measured by UV-vis, and the release rate of the drug PMX was calculated.

The nature of data set [4]: Release test of Van from AL-ABA-Van solution (dialysis membrane, PBS). Type of data set: physicochemical. The method, then:
The release behavior or Van from an AL-ABA-Van solution at different pH values was investigated using a dialysis membrane (pore size: 50 kDa). Specifically, 1 mL of an AL-ABA-Van solution of the AL-ABA-Van obtained in Example I-7 above dissolved in […] of pure water was injected into a dialysis membrane cut to 9 cm, and both ends of the dialysis membrane were tied with kite thread. This was placed in an 80 mL security, container, 79 mL of PBS solution was added, and the mixture was stirred at the maximum rotational speed with a 1 cm stirrer tip in a 37° C. thermostatic tank. 1.0 mL samples were taken from the solution in the security container at specific time points (1, 2, 3, 4, 6, 8, 12, 24, and 48 hours). The sample solutions were subjected to UV-vis spectrum measurement, the drug concentration in the solutions was assayed based on absorbance, and the release rate of the drug Van (vancomycin release %) was calculated. The above measurements were conducted with pH 5.0, pH 6.0 and pH 7.4 PBS solutions (n=4 at each pH).
For purposes of comparison as control tests, the same release testing was also performed with the AL-ABA-Van solution replaced by a mixed solution (AL+Van) of sodium alginate and vancomycin obtained by dissolving 3 mg/mL of sodium alginate (AL) (IL-6G, viscosity 50 to 80 mPa·s (1%), manufactured by Kimica Co., Ltd.) and 8.6 mg/mL of vancomycin (Van) in pure water, and by a solution (Van only) obtained by dissolving 8.6 mg/mL of vancomycin (Van) in pure water.

For data set [5], the system named is AB22 cells (mouse mesothelioma cells). Nature of the data set: Cell toxicity evaluation (WST assay) of HA-ABA-DOX in AB22. Conditions: 48 hours; for Cell growth inhibition effect (cell viability): DOX 10^−3 to 100 μg/mL. Format: cell-based. The method, then:
As with the HA-ABA, the cell toxicity of HA-ABA-DOX in AB22 cells (mouse mesothelioma cells) was evaluated by WST assay.
Specifically, AB22 cells (mouse mesothelioma cells) were seeded on 24-well plates and incubated for 24 hours. The medium was then replaced with media having […] dissolved at different DOX concentrations (10^−3 μg/mL, 10^−2 μg/mL, 10^−1 μg/mL, 1 μg/mL, 10 μg/mL, 100 μg/mL). Cell viability (%) 48 hours after sample addition was then measured by WST-8 assay (Cell Counting Kit-8 Dojindo).
For purposes of comparison as a control test, cell toxicity was also evaluated using free DOX in place of HA-ABA-DOX.

A short description of data set [6]: Release test of DOX from HA-ABA-DOX (dialysis tube, PBS). Type of data set: physicochemical. Conditions: PBS 37° C., pH 5.0, 6.0, 7.4. The method, then: Release of DOX from HA-ABA-DOX under different pH conditions was investigated in the same manner as in Example II-2. Specifically, 1 mL of an aqueous solution of the HA-ABA-DOX (1 mg/mL) obtained in Example II-3 above was placed in a dialysis tube (MWCO: 1 kDa), and shaken at 50 rpm while being incubated with 79 mL of PBS (37° C., pH=5.0, 6.0 7.4). The external solution (sustained release solution) was collected at specific time points, and new PBS was substituted for the entire amount. The drug concentration in the collected external solution (sustained release solution) was measured by UV-vis, and the release rate of the drug DOX was calculated.

In the case of `Nc1nc2[nH]cc(CCc3ccc(C(=O)N[C@@H](CCC(=O)O)C(=O)O)cc3)c2c(=O)[nH]1` [Free PMX, Pemetrexed, reference compound], the “Cell growth inhibition effect (cell viability)” value (“Cell growth inhibition effect” below) in data set [1] and in data set [2] was “dose-dependent cell growth inhibition effects” throughout. Also, the PMX released result in data set [3] (control solutions, within 2 hours) is reported as “almost all”.
As to `CN[C@H](CC(C)C)C(=O)N[C@H]1C(=O)N[C@@H](CC(N)=O)C(=O)N[C@H]2C(=O)N[C@H]3C(=O)N[C@H](C(=O)N[C@H](C(=O)O)c4cc(O)cc(O)c4-c4cc3ccc4O)[C@H](O)c3ccc(c(Cl)c3)Oc3cc2cc(c3O[C@@H]2O[C@H](CO)[C@@H](O)[C@H](O)[C@H]2O[C@H]2C[C@](C)(N)[C@H](O)[C@H](C)O2)Oc2ccc(cc2Cl)[C@H]1O` [Van, Vancomycin, reference compound], the Van released entry in data set [4] (control solutions, first 10 hours, pH 5.0, 6.0, 7.4) is on record as “almost all”. Also, the “pH dependence of Van release behavior” value in data set [4] (pH 5.0, 6.0, 7.4) was “no difference in release behavior depending on pH”.
With `COc1cccc2c1C(=O)c1c(O)c3c(c(O)c1C2=O)C[C@@](O)(C(=O)CO)C[C@@H]3O[C@H]1C[C@H](N)[C@H](O)[C@H](C)O1` [free DOX, Doxorubicin, reference compound], the “Cell growth inhibition effect” value in data set [5] was “dose-dependent cell growth inhibition effects”.
Take “benzaldehyde-modified alginic acid-vancomycin conjugate [AL-ABA-Van]”: the “Van released (cumulative release rate)” value in data set [4] (PBS pH 5.0, 37° C., after 10 hours) was “over 80%”. The Van not released in data set [4] (PBS pH 7.4, 37° C., after 10 hours) was about 50%. In addition, in data set [4] (pH 5.0, 6.0, 7.4), the “pH dependence of Van release behavior” value is “released more rapidly the lower the pH”.
For “benzaldehyde-modified hyaluronic acid-doxorubicin conjugate [HA-ABA-DOX]”, in data set [5], the “Concentration depressing cell viability compared with free DOX” value was “depressed cell viability at lower concentrations” and the “Cell growth inhibition effect” value was “dose-dependent cell growth inhibition effects”. In addition, the “pH dependence of DOX release” value in data set [6] was “selective drug release at low pH”.
For the compound “benzaldehyde-modified hyaluronic acid-pemetrexed conjugate [HA-ABA-PMX]”, in data set [1], the “Concentration reducing cell viability compared with free PMX and HA-ADH-PMX” value is given as “reduced cell viability at lower concentrations”; the “Cell growth inhibition effect” value is on record as “dose-dependent cell growth inhibition effects”. Also, in data set [2], the “Concentration reducing cell viability compared with free PMX and HA-ADH-PMX” value was “reduced cell viability at lower concentrations”; the “Cell growth inhibition effect” value is on record as “dose-dependent cell growth inhibition effects”. In addition, the “PMX released (cumulative drug release)” value in data set [3] (PBS pH 5.0, 37° C., after 24 hours) is listed as “more than 80%”. Moreover, the PMX not released in data set [3] (PBS pH 7.4, 37° C., after 24 hours) turned out to be 40%. The “pH dependence of PMX release” value in data set [3] (pH 5.0, 6.0, 7.4) is given as “released more rapidly at lower pH values”.
